Measurements from patent US20230212571A1, “COMPOSITIONS AND METHODS FOR DELIVERING POLYNUCLEOTIDES” (NeOnc Technologies, Inc., priority 2020, published 2023).

How the values were obtained:
AVM-BEC [1] = assay: Immunostaining of MMP2 and MMP9 in AVM-BEC; assay type: cell-based, human
Method: Immunostaining was performed as previously described^15. (Virrey J J, Golden E B, Sivakumar W, et al. Glioma-associated endothelial cells are chemoresistant to temozolomide. J Neurooncol. 2009; 95(1):13-22). Primary antibodies used were rabbit anti-MMP2, mouse anti-MMP9 (1:150, Abgent), rabbit anti-phospho-Smad1/5 (Ser463/465) (1:50, Abgent), rabbit anti-BMP4, rabbit anti-PAI-1 (1:50, Proteintech), rabbit anti-VEGF (1:50, Santa Cruz Biotechnology), rabbit anti-HIF-1α (1:50, Cell Signaling Technology), and rabbit anti-phospho-Smad3 (Ser423/425) (1:50, GeneTex). Secondary antibodies used were biotinylated anti-rabbit and biotinylated anti-mouse (1:300, Vector Laboratories), accordingly. Pictures were taken in an Eclipse 80i microscope (Nikon). Images shown are representative of three-five independent experiments.

BEC [2] = assay: Western blot of control BEC lysates; assay type: cell-based, human; conditions: untreated vs scramble vs miR-18a
Excerpt: Human surgical specimens were obtained following written informed consent from patients in accordance with Declaration of Helsinki guidelines and the Institutional Review Board (HS-04B053), at Keck School of Medicine, USC. AVM-BECs were isolated from brain tissues of patients who underwent microsurgical AVM resection. Control BECs were isolated from the structurally normal […] of patients who underwent temporal lobectomy for intractable epilepsy. Endothelial cell (EC) isolation and culture were described^5,9. (Stapleton C J, Armstrong D L, Zidovetzki R, Liu C Y, Giannotta S L, Hofman F M. Thrombospondin-1 modulates the angiogenic phenotype of human cerebral arteriovenous malformation endothelial cells. Neurosurgery. 2011; 68(5):1342-1353) (Ferreira R, Santos T, Amar A, et al. Argonaute-2 promotes miR-18a entry in human brain endothelial cells. J Am Heart Assoc. 2014; 3(3):e000968) ECs were only used between passages 3-5. Experiments were performed under shear flow conditions (12 dyn/cm^2) to reproduce arterial flow^6. […]
The levels of angiogenesis-related proteins were analyzed using the Proteome Profiler™ Human Angiogenesis Array kit (R&D Systems) following the manufacturer's instructions. […] Membranes were visualized and quantified using a C-Digit Blot scanner (Li-Cor) or a iBright CL1000 (Thermo Fisher Scientific).

AVM-BEC [3] = assay: Western blot of AVM-BEC lysates; assay type: cell-based, human
Excerpt: Human surgical specimens were obtained following written informed consent from patients in accordance with Declaration of Helsinki guidelines and the Institutional Review Board (HS-04B053), at Keck School of Medicine, USC. AVM-BECs were isolated from brain tissues of patients who underwent microsurgical AVM resection. Control BECs were isolated from the structurally normal […] of patients who underwent temporal lobectomy for intractable epilepsy. Endothelial cell (EC) isolation and culture were described^5,9. (Stapleton C J, Armstrong D L, Zidovetzki R, Liu C Y, Giannotta S L, Hofman F M. Thrombospondin-1 modulates the angiogenic phenotype of human cerebral arteriovenous malformation endothelial cells. Neurosurgery. 2011; 68(5):1342-1353) (Ferreira R, Santos T, Amar A, et al. Argonaute-2 promotes miR-18a entry in human brain endothelial cells. J Am Heart Assoc. 2014; 3(3):e000968) ECs were only used between passages 3-5. Experiments were performed under shear flow conditions (12 dyn/cm^2) to reproduce arterial flow^6. (Ferreira R, Santos T, Amar A, et al. MicroRNA-18a improves human cerebral arteriovenous malformation endothelial cell function. Stroke. 2014; 45(1):293-297). For hypoxic experiments, cells were cultured in a Galaxy 48R (Eppendorf) incubator at 3% O2. MicroRNAs were co-administered with Ago-2 to increase the cellular uptake of miR-18a^9 (Ferreira R, Santos T, Amar A, et al. Argonaute-2 promotes miR-18a entry in human brain endothelial cells. J Am Heart Assoc. 2014; 3(3):e000968) (FIG. 9). Methods regarding cell treatments and transfections were included in Data.
MiR-18a (hsa-miR-18a-5p, 40 nM, Dharmacon) or a scramble microRNA (40 nM, Dharmacon) in nuclease-free water was added with argonaute 2 (Ago-2, 0.4 nM, Abcam) as the microRNA carrier and stabilizer^9. (Ferreira R, Santos T, Amar A, et al. Argonaute-2 promotes miR-18a entry in human brain endothelial cells. J Am Heart Assoc. 2014; 3(3):e000968). No transfection reagent was used with miR-18a or scramble microRNA treatments. Recombinant human TSP-1 (R&D Systems) stock solution was prepared in PBS and further diluted in culture medium to be used at a final concentration of 1000 ng/mL. Cells were treated during 24 h for mRNA and 48 h for protein expression studies. NEO100 (NeOnc Technologies) stock was prepared in DMSO and used immediately or stored at −20° C.
The levels of angiogenesis-related proteins were analyzed using the Proteome Profiler™ Human Angiogenesis Array kit (R&D Systems) following the manufacturer's instructions. The protocol for western blot was published^10. (Marín-Ramos N I, Alonso D, Ortega-Gutiérrez S, et al. New inhibitors of angiogenesis with antitumor activity in vivo. J Med Chem. 2015; 58(9):3757-3766). Information about antibodies used was included in Table 1. Membranes were visualized and quantified using a C-Digit Blot scanner (Li-Cor) or a iBright CL1000 (Thermo Fisher Scientific).

BEC [4] = assay: Invasion assay, Matrigel-coated Boyden chamber, control BEC; assay type: cell-based, human; conditions: P>0.9999
Excerpt: The chemoinvasion assay was described^14. (Marín-Ramos N I, Thein T Z, Cho H-Y, et al. NEO212 inhibits migration and invasion of glioma stem cells. Mol Cancer Ther. 2018; 17(3):625-637). Pictures were captured using an Eclipse 80i microscope (Nikon), and cells counted with ImageJ Software (NIH).

[5] = Pharmacokinetic study of miR-18a in serum and brain by RT-qPCR; assay type: in vivo, C57BL/6 mice
Excerpt: All animal protocols were approved by the USC's Institutional Animal Care and Use Committee (IACUC) and strictly adhered to. MiR-18a was co-administered with Ago-2 (0.0008 nmol/mouse) to increase stability and cellular uptake^9 (Ferreira R, Santos T, Amar A, et al. Argonaute-2 promotes miR-18a entry in human brain endothelial cells. J Am Heart Assoc. 2014; 3(3):e000968). (FIG. 9). Details about randomization, blinding, group size and inclusion/exclusion criteria have been included in Methods.
For pharmacokinetic measurements, 0.8 nmol/mouse of miR-18a were administered IV or IN to C57BL/6 mice. At the indicated time points, mice were euthanized, and the serum and brains were collected and flash-frozen in liquid nitrogen (n=6 per time-point and condition). MicroRNAs were isolated using the mirVana™ miRNA Isolation Kit and measured by RT-qPCR as described above.

hsa-miR-18a-5p (UAGGUGCAUCUAGUGCAGAUAG; chemistry not given here; listed as Homo sapiens) [small non-coding RNA molecule involved in post-transcriptional regulation of gene expression; Dharmacon]
MMP9 expression (immunostaining) (AVM-BEC [1]): did not decrease | levels of bFGF, ET-1, PAI-1 and VEGF (western blot) (BEC [2]): remained unaltered | MMP9 protein levels (western blot) (AVM-BEC [3]; AVM-BEC): not significantly (P=0.9409) affected | ratio MMP2/MMP9 protein levels (AVM-BEC [3]; AVM-BEC): lowers the ratio MMP2/MMP9 | ADAM10 protein levels (western blot) (AVM-BEC [3]; AVM-BEC, P<0.001): significantly decreased | MMP2 protein levels (western blot) (AVM-BEC [3]; AVM-BEC, P=0.0132): significantly decreased | levels of TGF-β (western blot) (AVM-BEC [3]; AVM-BEC, P>0.9999): not significantly changed | phosphorylation levels of Smad3 (AVM-BEC [3]; AVM-BEC, P>0.9999): Neither the phosphorylation levels of Smad3 nor the total levels of Smad4 were altered | total levels of Smad4 (AVM-BEC [3]; AVM-BEC, P>0.9999): Neither the phosphorylation levels of Smad3 nor the total levels of Smad4 were altered | phosphorylation levels of Smad1/5 (AVM-BEC [3]; AVM-BEC, vs scramble): significantly (P<0.0001) decreased | PAI-1 protein levels (western blot) (AVM-BEC [3]; patient-derived AVM-BEC, vs scramble microRNA, P<0.001, n=8): decreased | invasiveness (BEC [4]): without affecting control BEC | miR-18a levels compared to scramble microRNA-treated mice ([5]; 0.8 nmol/mouse IV or IN, C57BL/6 mice): approximately 40 times | retention of miR-18a, IN compared with IV ([5]; 0.8 nmol/mouse, IN administration): longer retention times | time of highest levels of miR-18a in serum and brains, IV compared with IN ([5]; 0.8 nmol/mouse, IV administration): earlier | amount of microRNA in the brain, times the basal levels of miR-18a ([5]; IN administration, 0.8 nmol/mouse): approximately 40 times | time required to reach the peak levels ([5]; IN administration, brain): 2 h
